Source: patent US8383582B2, “Inhibitor against forming biofilm comprising κ-casein macropeptide” (Industry Foundation of Chonnam National University, priority 2010, dated 2013)
Several values for one entry are separate records, joined by “and”; a condition that tells them apart may be missing. Equal entries are not always repeated.

What was measured:
[1] = tested on: L. monocytogenes; assay: Growth yields in MWB at 30° C.; format: cell-based, Listeria monocytogenes; details: data not shown
[2] = tested on: L. monocytogenes Scott A to AGS cell; assay: Invasion analysis (gentamicin-based) on AGS cells; format: cell-based, Listeria monocytogenes; details: CMP 0.4 mg/ml, at the lower MOI, 1.5 h 37° C.
Excerpt: (§1) The human intestinal epithelial cell line HT-29 and the human gastric epithelial cell line AGS were purchased from the Korea Cell Line Bank (KCLB; Seoul, Korea). HT-29 cells have been extensively used as a model system for studying interaction of enteric pathogens with intestinal epithelial cells. All media and fetal bovine serum (FBS) were obtained from Gibco BRL (Life Technologies Inc., Grand Island, N.Y., USA) and JBI (Jeil Biotech services Inc., Seoul, Korea). The HT-29 and AGS cells were grown in RPMI-1640 medium which was supplemented with 10% heat-inactivated FBS. The cells were routinely cultured at 37° C. in 5% CO2 incubator with 6-well or 12-well tissue culture plates for adhesion and invasion assays and in 100-mm-diameter tissue culture plates for RNA isolation.
The invasion of epithelial cells by L. monocytogenes Scott A was studied using the gentamicin-based assay described by Bunduki et al. (1993) and Gaillard et al. (1987) with modifications. Briefly, the HT-29 and the AGS cells monolayers (10^6 cells) were inoculated with 100 μl of the L. monocytogenes Scott A suspension (10^8 and 10^6 CFU/ml) and incubated for 1.5 h at 37° C. in the absence or presence of 0.4 mg/ml CMP, respectively. The monolayers were washed with PBS, followed by the addition of 250 μl of 1 mg/ml gentamicin (Sigma) and incubation for an additional 1.5 h. […]

[3] = tested on: L. monocytogenes Scott A to AGS cell; assay: Adhesion analysis on AGS cells; format: cell-based, Listeria monocytogenes; details: CMP 0.4 mg/ml, at the lower MOI, 30 min 37° C.
Excerpt: as §1
(§2) Prior to the adhesion assay, the HT-29 and the AGS cells monolayers were washed three times in pre-warm PBS (25° C.) to remove any culture medium and non-attached cells. The adhesion assays were performed using L. monocytogenes Scott A according to the method of Hagman et al. (1999) with modifications. Bacteria were grown overnight at 37° C. in TSBYE. […]

[4] = tested on: L. monocytogenes Scott A; assay: Light microscopy of biofilm on PVC microtiter plates and glass tube; format: cell-based, Listeria monocytogenes; details: MWB 24 h, CMP 0.4 mg/ml
Excerpt: The quantification of biofilm production on plastic microtiter plates and glass tubes was based on a previously described method (Djordjevic et al., 2002). As abiotic surfaces for biofilm formation, 96-well polyvinyl chloride (PVC) microplates (BD Biosciences, San Jose, Calif., USA) and Pyrex glass tube (10 mm by 20 mm) were used. Overnight cultures of 12 strains of L. monocytogenes were twice washed with PBS and inoculated at 10^6 CFU/ml in modified Welshimer's broth (MWB) supplemented different concentrations of CMP (Davisco Foods International, Inc., MN, USA; 0.1, 0.2, and 0.4 mg/ml or 1.0, 2.0, and 4.0 mg/ml). After incubation at 30° C. without agitation for 24 and 48 h, the microplates were twice rinsed thoroughly with double-distilled water, and a 0.1% (w/v) solution of crystal violet (CV) was added to stain the attached cells. […] The absorbance at 595 nm of the solubilized dye was subsequently determined by using an enzyme-linked immunosorbent assay (ELISA) plate reader (Molecular Devices, Sunnyvale, Calif., USA). […]
In addition, biofilm formations on PVC microtiter plates and glass tube by L. monocytogenes incubated in MWB for 24 h in the presence or absence of CMP (0.4 mg/ml) were analyzed using light microscopy and microscopic analyses were illustrated in FIGS. 3 and 4, respectively.

[5] = tested on: L. monocytogenes Scott A to HT-29 cell; assay: Adhesion analysis on HT-29 cells; format: cell-based, Listeria monocytogenes; details: CMP 0.4 mg/ml, at the lower MOI, 30 min 37° C.
Excerpt: as §1, §2

[6] = tested on: L. monocytogenes Scott A; assay: Nematode Caenorhabditis elegans killing assay; format: in vivo
Description: Caenorhabditis elegans killing assay were performed as initially described by Tenor et al. (2004) with modification. Briefly, L. monocytogenes Scott A was grown in 10 ml of TSBYE culture for overnight. Culture samples (each, 10 μl) were then spread on NGM agar plates (Brenner, 1974; diameter of each, 30 mm). In the present invention, instead of wild-type Bristol N2 worms, we tested killing of C. elegans glp-4 mutant worms. […] (Mylonakis et al., 2002). For each strain, healthy 12 nematodes in L4 stage were transferred from NGM plates seeded with Escherichia coli OP50 to the plates seeded with L. monocytogenes Scott A in the absence or presence of 0.4 mg/ml of CMP and incubated at 25° C. The number of living worms per plate was determined at various time points for 15 days with a light microscopy (Olympus CH30, Tokyo, Japan). […] Each experimental condition was tested in duplicate or triplicate. In analogous experiments, E. coli OP50 was used as controls.

κ-casein macropeptide [CMP]
effect on growth yields [1]: did not significantly affect
invasion of L. monocytogenes Scott A [2]: prevented
adhesion of L. monocytogenes Scott A [3]: prevented
attached cells (light microscopy) [4]: only a small number of L. monocytogenes Scott A cells had attached
adhesion of L. monocytogenes Scott A [5]: prevented
worms survived ([6]; C. elegans glp-4 on lawn of L. monocytogenes Scott A, agar medium with CMP 0.4 mg/ml, 8 days, 25° C., 37.5% without CMP): 54% and 50%
survival of C. elegans from the infection of L. monocytogenes ([6]; CMP 0.4 mg/ml, 15 days): prolong the survival ability
